Earlier results in patent US10463613B2, “Cromolyn compositions for treatment of chronic cough due to idiopathic pulmonary fibrosis” (Respivant Sciences GmbH, priority 2016, dated 2019).
Read-outs that look alike come from different tables or passages of the source.

Conditions: in vivo

- Bioavailability of available formulations: approximately 1%
- Oral bioavailability: ~1%
- Oral bioavailability (listed as cromolyn): about 1%
Compound: O=C([O-])c1cc(=O)c2c(OCC(O)COc3cccc4oc(C(=O)O)cc(=O)c34)cccc2o1.[Na+] [cromolyn sodium, disodium 5,5′-(2-hydroxypropane-1,3-diyl)bis(oxy)bis(4-oxo-4H-chromene-2-carboxylate)]
